# Measurements taken from US20230026259A1, “CA2 COMPOSITIONS AND METHODS FOR TUNABLE REGULATION” (Obsidian Therapeutics, Inc., priority 2019, published 2023).
# Experiments:
# [1] = test system: T cells; assay: CD40L expression of CA2 regulated CD40L constructs in T cells by FACS (dose response, time course); format: cell-based; conditions: 24 hours
# Source text: CD40L constructs regulated by Carbonic anhydrase DDs were generated and cloned into lentiviral vectors. Purified T cells were thawed and cultured with aCD3 aCD28 Dynabeads (in the ratio of 3 beads to 1 T cell).
# The constructs were transduced in T cells the next day. […]
# [2] = test system: NIH3T3 cells; assay: Dose response of saturation library constructs to Acetazolamide or Celecoxib, GFP MFI by FACS; format: cell-based; conditions: Acetazolamide vs Celecoxib, 24 hours
# Source text: The MFI values obtained with Acetazolamide were much higher than the MFIs obtained with Celecoxib treatment.
# [3] = test system: Activated T cells from human donor; assay: Cell surface CAR expression of CA2 regulated CAR constructs (CD19-Fc staining); format: cell-based; conditions: T cells, 10 μM ligand overnight, day 7 and 9
# Description: CA2 DD described herein were operably linked to CARs to generate tunable CAR constructs. Activated T cells from human donor were transduced with 10 μL of lentivirus for indicated constructs. […] Cell surface CAR expression was detected the following day by staining the cells with 10 ug/mL CD19-Fc followed by an anti-human-BV421 conjugated secondary antibody. Histograms were plotted from a live cell gate. Similar experiments were also performed at day 8 and the cells were harvested at day 9. The data are shown in Table 20 as percentage CAR positive cells. The stabilization ratio was also calculated and is included in Table 20 as SR.
# Activated T cells from human donor were transduced with 10 μL of lentivirus for indicated constructs. […] Cell surface CAR expression was detected the following day by staining the cells with 10 ug/mL CD19-Fc followed by an anti-human-BV421 conjugated secondary antibody. The percent of ligand induced CAR+ cells are plotted from a live cell gate relative to vehicle treated negative control cells.
# [4] = Plasma concentration of acetazolamide after single and repeated oral doses; format: in vivo, mice; conditions: oral 200 mg/kg, up to 100 hr
# [5] = test system: human primary T cells; assay: IL15-dependent expansion: T cell numbers and CD4/CD8 ratio by flow cytometry; format: cell-based; conditions: continuous Acetazolamide in culture, 10 days
# Description: To test IL15-dependent expansion, beads were removed on day 10 and cells were washed. […] The T cell numbers (Table 30) and the change in CD4/CD8 ratio (Table 31) were determined by flow cytometry.
# [6] = Body weights after repeated daily doses of acetazolamide
# Description: Body weights were measured for up to 12 days post daily repeated doses on days 0-4 and 8-11 (data not shown).
# Dose responsiveness of OT-002175 was tested by measuring total flux in mice receiving repeated ligand dosing for up to 32 days post tumor implant (data not shown).
# [7] = CD4+ T cells with OT-001990, Acetazolamide 0.01 μM
# [8] = CD4+ T cells with OT-001990, Acetazolamide 0.2 μM
# [9] = CD4+ T cells with OT-001990, Acetazolamide 0.8 μM
# [10] = CD4+ T cells with OT-001990, Acetazolamide 3.1 μM
# [11] = CD4+ T cells with OT-001990, Acetazolamide 12.5 μM
# [12] = CD4+ T cells with OT-001990, Acetazolamide 50 μM
# [13] = CD8+ T cells with OT-001990, Acetazolamide 0.01 μM
# [14] = CD8+ T cells with OT-001990, Acetazolamide 0.05 μM
# [15] = CD8+ T cells with OT-001990, Acetazolamide 0.2 μM
# [16] = CD8+ T cells with OT-001990, Acetazolamide 0.8 μM
# [17] = CD8+ T cells with OT-001990, Acetazolamide 3.1 μM
# [18] = CD8+ T cells with OT-001990, Acetazolamide 12.5 μM
# [19] = CD8+ T cells with OT-001990, Acetazolamide 50 μM
structure (smiles),measurement,setting,value
"CC(=O)Nc1nnc(S(N)(=O)=O)s1 [Acetazolamide, reference compound]",CD40L MFI,[1]; [7],112
same,Percentage CD40L positive cells,[1]; [7],4.13%
same,Percentage CD40L positive cells,"[1]; CD4+ T cells with OT-001990, Acetazolamide 0.05 μM",5.44%
same,CD40L MFI,[1]; [8],185
same,Percentage CD40L positive cells,[1]; [8],10.3%
same,CD40L MFI,[1]; [9],481
same,Percentage CD40L positive cells,[1]; [9],45.6%
same,CD40L MFI,[1]; [10],840
same,Percentage CD40L positive cells,[1]; [10],69.3%
same,CD40L MFI,[1]; [11],2783
same,Percentage CD40L positive cells,[1]; [11],90.3%
same,CD40L MFI,[1]; [12],3728
same,Percentage CD40L positive cells,[1]; [12],91.1%
same,CD40L MFI,[1]; [13],105
same,Percentage CD40L positive cells,[1]; [13],0.59%
same,CD40L MFI,[1]; [14],104
same,Percentage CD40L positive cells,[1]; [14],0.44%
same,CD40L MFI,[1]; [15],136
same,Percentage CD40L positive cells,[1]; [15],1.48%
same,CD40L MFI,[1]; [16],307
same,Percentage CD40L positive cells,[1]; [16],25.2%
same,CD40L MFI,[1]; [17],380
same,Percentage CD40L positive cells,[1]; [17],41.2%
same,CD40L MFI,[1]; [18],1599
same,Percentage CD40L positive cells,[1]; [18],77.2%
same,CD40L MFI,[1]; [19],2184
same,Percentage CD40L positive cells,[1]; [19],80.7%
same,MFI values obtained with one ligand compared with the other,[2],much higher
same,CAR regulation compared between ligands,[3],Greater CAR regulation
same,daily 1 hr Cmax values after repeated doses,[4],do not elevate daily 1 hr Cmax values
same,T cell expansion,[5],3.6 fold
same,effects on body weight in efficacy study,"[6]; 30, 100 and 200 mg/kg acetazolamide",comparable effects on body weight
same,body weight changes from dosing,"[6]; oral 200 mg/kg, daily repeated doses on days 0-4 and 8-11",begin to level off by the end of the first week of daily doses
